The source of these data is patent US10596171B2, “Cap-dependent endonuclease inhibitors” (priority 2018, dated 2020).

The assay relates to influenza B virus. The assay can be described thus: microbe, parasite or virus in culture. In kind it is cell-based. Particulars: MDCK, 72 h, read-out: EC50 (reduce virus-induced CPE by 50%).
As usually defined, the EC50 is the midpoint of the concentration-response curve. For `CC1N(C2c3ccc(F)c(F)c3CSc3c(F)cccc32)n2ccc(=O)c(O)c2C(=O)C12CC2` (stereo not drawn) [Compound 26], the EC50 lay within 100 to 1000 nM.

Consider `Cc1cccc2c1SCc1c(ccc(F)c1F)C2N1CC2(CC2C)C(=O)c2c(O)c(=O)ccn21` (stereo not drawn) [Compound 36], for which the concentration for a half-maximal effect (EC50) fell in the range of 100 to 1000 nM.

In the case of `Cc1cccc2c1SCc1c(ccc(F)c1F)C2N1C(C)C2(CC2)C(=O)c2c(O)c(=O)ccn21` (stereo not drawn) [Compound 27], the EC50 lay within 100 to 1000 nM.

For the molecule `Cc1cc(=O)c(O)c2n1N(C1c3ccccc3SCc3c1ccc(F)c3F)CC1(CC1)C2=O` (stereo not drawn) [Compound 28], the 50% effective concentration (EC50) lay in the range of 100 to 1000 nM.

For the molecule `O=C1c2c(O)c(=O)ccn2N(C2c3ccccc3SCc3c2ccc(F)c3F)CC12CC2COCc1ccccc1` (stereo not drawn) [Compound 34], the concentration for a half-maximal effect (EC50) was 100 to 1000 nM.

In the case of `Cc1cccc2c1SCc1cc(F)ccc1C2N1CC2(CC2)C(=O)c2c(O)c(=O)ccn21` (stereo not drawn) [Compound 7], the 50% effective concentration (EC50) was less than 100 nM.

Regarding `CCC1CC12CN(C1c3ccccc3SCc3c1ccc(F)c3F)n1ccc(=O)c(O)c1C2=O` (stereo not drawn) [Compound 37], the EC50 is less than 100 nM.

In the case of `O=C1c2c(O)c(=O)ccn2N(C2c3ccc(F)cc3COc3c(Cl)cccc32)CC12CC2` (stereo not drawn) [Compound 15], the EC50 is less than 100 nM.

For the molecule `O=C1c2c(O)c(=O)ccn2N(C2c3ccc(F)c(F)c3CSc3c(Cl)cccc32)CC12CC2` (stereo not drawn) [Compound 18], the 50% effective concentration (EC50) fell in the range of 100 to 1000 nM.

As for `CC1CC12CN(C1c3ccccc3SCc3c1ccc(F)c3F)n1ccc(=O)c(O)c1C2=O` (stereo not drawn) [Compound 20], the concentration giving a half-maximal response (EC50) lay in the range of 100 to 1000 nM.

For `O=C1c2c(O)c(=O)ccn2N(C2c3cccc(F)c3CSc3c(Cl)cccc32)CC12CC2` (stereo not drawn) [Compound 12], the half-maximal effective concentration (EC50) fell in the range of 100 to 1000 nM.

As for `O=C(O)C1CC12CN(C1c3ccccc3SCc3c1ccc(F)c3F)n1ccc(=O)c(O)c1C2=O` (stereo not drawn) [Compound 33], the concentration giving a half-maximal response (EC50) was 100 to 1000 nM.

In the case of `O=C1c2c(O)c(=O)ccn2N(C2c3ccc(F)cc3CSc3c(F)cccc32)CC12CC2` (stereo not drawn) [Compound 5], the concentration for a half-maximal effect (EC50) was less than 100 nM.

`Cc1cc(=O)c(O)c2n1N(C1c3ccc(F)c(F)c3CSc3c(F)cccc31)CC1(CC1)C2=O` (stereo not drawn) [Compound 30]: the EC50 was in the range of 100 to 1000 nM.

For the molecule `O=C1c2c(O)c(=O)ccn2N(C2c3ccccc3SCc3c2ccc(Cl)c3F)CC12CC2` (stereo not drawn) [Compound 19], the concentration giving a half-maximal response (EC50) is 100 to 1000 nM.

With `CCOC(=O)C1CC12CN(C1c3ccccc3SCc3c1ccc(F)c3F)n1ccc(=O)c(O)c1C2=O` (stereo not drawn) [Compound 32], the concentration giving a half-maximal response (EC50) fell in the range of 100 to 1000 nM.

On to `Cc1cccc2c1SCc1ccccc1C2N1CC2(CC2)C(=O)c2c(O)c(=O)ccn21` (stereo not drawn) [Compound 11], for which the EC50 is 100 to 1000 nM.

Take `O=C1c2c(O)c(=O)ccn2N(C2c3ccc(Cl)c(F)c3CSc3c(Cl)cccc32)CC12CC2` (stereo not drawn) [Compound 23]: the concentration for a half-maximal effect (EC50) was in the range of 100 to 1000 nM.

As for `O=C1c2c(O)c(=O)ccn2N(C2c3ccccc3SCc3cccc(Br)c32)CC12CC2` (stereo not drawn) [Compound 29], the EC50 is 100 to 1000 nM.

As to `O=C1c2c(O)c(=O)ccn2N(C2c3ccc(F)c(F)c3CSc3c(F)cccc32)CC12CC2` (stereo not drawn) [Compound 17], the 50% effective concentration (EC50) is less than 100 nM.

In the case of `O=C1c2c(O)c(=O)ccn2N(C2c3ccccc3SCc3c2ccc(F)c3F)CC12CC2` (stereo not drawn) [Compound 2], the half-maximal effective concentration (EC50) is less than 100 nM.

Take `O=C1c2c(O)c(=O)ccn2N(C2c3ccccc3SCc3c(F)cccc32)CC12CC2` (stereo not drawn) [Compound 1, 1-(1-Fluoro-5,11-dihydro-10-thia-dibenzo[a,d]cyclohepten-5-yl)-5-hydroxy-3,3-cyclopropyl-2,3-dihydro-1H-pyrido[1,2-b]pyridazine-4,6-dione]: the 50% effective concentration (EC50) was in the range of 100 to 1000 nM.

In the case of `O=C1c2c(O)c(=O)ccn2N(C2c3ccc(F)cc3CSc3c(Cl)cccc32)CC12CC2` (stereo not drawn) [Compound 3], the EC50 is less than 100 nM.

As for `O=C1c2c(O)c(=O)ccn2N(C2c3ccc(Cl)c(F)c3CSc3c(F)cccc32)CC12CC2` (stereo not drawn) [Compound 24], the EC50 was less than 100 nM.

With `COCC1CC12CN(C1c3ccccc3SCc3c1ccc(F)c3F)n1ccc(=O)c(O)c1C2=O` (stereo not drawn) [Compound 38], the half-maximal effective concentration (EC50) is less than 100 nM.

`O=C1c2c(O)c(=O)ccn2N(C2c3ccc(Cl)cc3CSc3ccccc32)CC12CC2` (stereo not drawn) [Compound 4]: the EC50 was less than 100 nM.

For the molecule `CC1CC12CN(C1c3ccc(F)c(F)c3CSc3c(F)cccc31)n1ccc(=O)c(O)c1C2=O` (stereo not drawn) [Compound 35], the EC50 is less than 100 nM.

`Cc1cccc2c1SCc1c(ccc(F)c1F)C2N1CC2(CC2)C(=O)c2c(O)c(=O)ccn21` (stereo not drawn) [Compound 16]: the EC50 lay in the range of 100 to 1000 nM.

Consider `O=C1c2c(O)c(=O)ccn2N(C2c3ccccc3CSc3c(F)cccc32)CC12CC2` (stereo not drawn) [Compound 9], for which the EC50 was less than 100 nM.

Consider `O=C1c2c(O)c(=O)ccn2N(C2c3ccccc3CSc3c(Cl)cccc32)CC12CC2` (stereo not drawn) [Compound 13], for which the concentration for a half-maximal effect (EC50) lay in the range of 100 to 1000 nM.

In the case of `CC1N(C2c3ccccc3SCc3c2ccc(F)c3F)n2ccc(=O)c(O)c2C(=O)C12CC2` (stereo not drawn) [Compound 21], the EC50 was 100 to 1000 nM.

As for `O=C1c2c(O)c(=O)ccn2N(C2c3ccc(Cl)cc3CSc3c(F)cccc32)CC12CC2` (stereo not drawn) [Compound 14], the half-maximal effective concentration (EC50) is less than 100 nM.

For `Cc1cccc2c1SCc1c(F)cccc1C2N1CC2(CC2)C(=O)c2c(O)c(=O)ccn21` (stereo not drawn) [Compound 10], the EC50 lay in the range of 100 to 1000 nM.

In the case of `Cc1cccc2c1SCc1c(ccc(F)c1F)C2N1CC2(CC2)C(=O)c2c(O)c(=O)cc(C)n21` (stereo not drawn) [Compound 31], the 50% effective concentration (EC50) was 100 to 1000 nM.

On to `CCC1N(C2c3ccccc3SCc3c2ccc(F)c3F)n2ccc(=O)c(O)c2C(=O)C12CC2` (stereo not drawn) [Compound 22], for which the EC50 was 100 to 1000 nM.

Turning to `[2H]c1c([2H])c([2H])c2c(c1[2H])SCc1c(ccc(F)c1F)[C@@H]2N1CC2(CC2)C(=O)c2c(O)c(=O)ccn21` [Compound 39], the EC50 is less than 100 nM.

As for `C=CC1N(C2c3ccccc3SCc3c2ccc(F)c3F)n2ccc(=O)c(O)c2C(=O)C12CC2` (stereo not drawn) [Compound 25], the EC50 lay within 100 to 1000 nM.

For `Cc1cccc2c1SCc1cc(Cl)ccc1C2N1CC2(CC2)C(=O)c2c(O)c(=O)ccn21` (stereo not drawn) [Compound 6], the EC50 lay in the range of 100 to 1000 nM.

Turning to `O=C1c2c(O)c(=O)ccn2N(C2c3ccc(F)cc3CSc3ccccc32)CC12CC2` (stereo not drawn) [Compound 8], the EC50 is less than 100 nM.
